This note sets out measurements from ChEMBL document CHEMBL5532652, “Design and synthesis of pterostilbene derivatives bearing triazole moiety that might treat DSS-induced colitis in mice through modulation of NF-κB/MAPK signaling pathways” (Eur J Med Chem, 2024).

Molecules are shown by their SMILES. Active and inactive are the calls of the source. The rule behind the calls is not given here.

The nature of data set [1]: Acute toxicity in male C57BL/6 mouse assessed as effect on body weight loss at 1000 to 2000 mg/kg, po measured for 14 days. In kind it is organism-based. Conditions: in vivo, 336 h, dose 1000-2000 mg/kg, time 14 day.
Data set [2] in a line: Toxicity in C57BL/6 mouse assessed as reduction in disease index at 20 mg/kg, po measured for 7 days. In kind it is organism-based. Conditions: in vivo, 168 h, time 7 day.
Data set [3] is described as follows: Acute toxicity in female C57BL/6 mouse assessed as lethargy at 1000 to 2000 mg/kg, po measured for 14 days. In kind it is organism-based. Conditions: in vivo, 336 h, dose 1000-2000 mg/kg, time 14 day.
Data set [4] in a line: Acute toxicity in female C57BL/6 mouse assessed as effect on fur laxity at 1000 to 2000 mg/kg, po measured for 14 days. Format: organism-based. Conditions: in vivo, 336 h, dose 1000-2000 mg/kg, time 14 day.
Data set [5] is described as follows: Acute toxicity in C57BL/6 mouse assessed as lung damage at 1000 mg/kg, po measured for 14 days. In kind it is organism-based. Conditions: in vivo, 336 h, time 14 day.
Data set [6] is described as follows: Acute toxicity in female C57BL/6 mouse assessed as effect on body weight loss at 1000 to 2000 mg/kg, po measured for 14 days. In kind it is organism-based. Conditions: in vivo, 336 h, dose 1000-2000 mg/kg, time 14 day.
In data set [7] the test system is Mus musculus. The data set can be described thus: Anti-inflammatory activity against DSS-induced acute colitis C57BL/6J mouse model assessed as reduction in edema at 10 to 20 mg/kg, po measured for 7 days. In kind it is functional, organism-based. Conditions: dose 10-20 mg/kg, time 7.0 day.
Another data set concerns RAW264.7. The data set can be described thus: Anti-inflammatory activity in LPS-stimulated mouse RAW264.7 cells assessed as inhibition of p38 phosphorylation preincubated with compound for 1 hr followed by LPS stimulation and measured after 30 mins by Western blot analysis. In kind it is functional, cell-based. Conditions: dose 0.5-2 µM, time 1.5 hrs. For orientation: A western blot detects proteins with antibodies after separation by electrophoresis.

The nature of data set [8]: Acute toxicity in male C57BL/6 mouse assessed as hyperactivity at 1000 to 2000 mg/kg, po measured for 14 days. In kind it is organism-based. Conditions: in vivo, 336 h, dose 1000-2000 mg/kg, time 14 day.
Data set [9] is described as follows: Acute toxicity in female C57BL/6 mouse assessed as effect on body weight gain at 1000 to 2000 mg/kg, po measured for 14 days. In kind it is organism-based. Conditions: in vivo, 336 h, dose 1000-2000 mg/kg, time 14 day.
The subject of data set [10] is Mus musculus. The data set can be described thus: Anti-inflammatory activity against DSS-induced acute colitis C57BL/6J mouse model assessed as decrease in goblet cells in colon at 10 to 20 mg/kg, po measured for 7 days. Conditions: dose 10-20 mg/kg, time 7.0 day. In kind it is functional, organism-based.

Take `C=CCOc1ccc(/C=C/c2cc(OC)cc(OC)c2-c2cnnn2C(=O)NCCCl)cc1`: the Activity entry in data set [1], in data set [2], in data set [3], in [4], in [5] and in data set [6] was “Non-Toxic” in each case. The Activity result in the data set with RAW264.7 is “Dose-Dependent Effect”; in [8] it was “Non-Toxic”; in [9], “Non-Toxic”. Moreover, the result with Mus musculus [7] and with Mus musculus [10] was Active.
